Values after ≈ are worked out from the molar mass of the structure shown. Active and inactive are the calls of the source. No cut-off for these calls is given here.
Tests used:
[1] = Stability of the compound in pH 7.4 potassium phosphate buffer at 10 uM measured after 5 hrs; type: physicochemical; settings: pH 7.4, 5 h
[2] = Drug level in human hepatocytes treated with (2S,3R)-3-cyclopropyl-3-(3-((R)-5-(2-fluoro-5-methoxyphenyl)-2,3-dihydro-1H-inden-1-yloxy)phenyl)-2-methylpropanoic acid at 5 uM measured after 2 hrs; type: ADME, cell-based, Hepatocyte
[3] = Drug level in rat hepatocytes treated with (2S,3R)-3-cyclopropyl-3-(3-((R)-5-(2-fluoro-5-methoxyphenyl)-2,3-dihydro-1H-inden-1-yloxy)phenyl)-2-methylpropanoic acid at 5 uM measured after 2 hrs; type: ADME, cell-based, Hepatocyte
[4] = Toxicity in rat assessed as change in body weight at 600 mg/kg administered for 4 days; type: organism-based; settings: in vivo, 96 h
[5] = Total drug level in rat plasma at 1 mg/kg, po; type: ADME, organism-based; settings: in vivo
[6] = target: Cysteinyl leukotriene receptor 2 (Homo sapiens) (UniProt Q9NS75); assay: Displacement of [3H]LTD4 from human full-length recombinant cysteinyl leukotriene type-2 receptor expressed in HEK293 cells at 10 uM measured after 60 mins by scintillation counting method relative to control; type: cell-based
[7] = target: Sodium-dependent noradrenaline transporter (Homo sapiens) (UniProt P23975); assay: Inhibition of human sodium dependent noradrenaline transporter at 10 uM relative to control
[8] = target: Prostaglandin E2 receptor EP1 subtype (Homo sapiens) (UniProt P34995); assay: Inhibition of human prostanoid EP1 receptor at 10 uM relative to control
[9] = Clearance in Wistar Han rat at 1 mg/kg, iv or 2 mg/kg, po; type: ADME, organism-based; settings: in vivo
Rattus norvegicus [10] = assay: Hypoglycemic activity in Sprague-Dawley rat assessed as reduction in blood glucose AUC at 10 mg/kg, po pretreated for 1 hr followed by glucose challenge by OGTT relative to control; type: functional; set-up: scale not given: the % may be the effect or the level left
[11] = Ratio of compound effect for protein binding in rat plasma assessed as unbound fraction at 30 mg/kg, po to fEC50 for positive allosteric modulation of recombinant human GPR40 expressed in HEK293 cells in presence of 100% human serum
[12] = target: T1, Free fatty acid receptor 1 (Homo sapiens, UniProt O14842); assay: Positive allosteric modulation of recombinant human GPR40 expressed in HEK293 cells assessed as increase in [3H]-myo-inositol phosphate accumulation measured after 60 mins in absence of human serum by microbeta counting method; type: functional, cell-based
[13] = Ratio of compound effect for protein binding in rat plasma assessed as unbound fraction at 10 mg/kg, po to fEC50 for positive allosteric modulation of recombinant human GPR40 expressed in HEK293 cells in presence of 100% human serum
[14] = Protein binding in rat plasma assessed as unbound fraction at 10 mg/kg, po; type: ADME, organism-based; settings: in vivo
[15] = target: Sodium-dependent dopamine transporter (Homo sapiens) (UniProt Q01959); assay: Inhibition of human sodium dependent dopamine transporter at 10 uM relative to control
[16] = target: T1, Free fatty acid receptor 1; assay: Positive allosteric modulation of recombinant human GPR40 expressed in HEK293 cells assessed as increase in [3H]-myo-inositol phosphate accumulation measured after 60 mins in presence of 100% human serum by microbeta counting method; type: functional, cell-based
[17] = Cmax in Wistar Han rat at 1 mg/kg, iv or 2 mg/kg, po; type: ADME, organism-based; settings: in vivo
Rattus norvegicus [18] = assay: Hypoglycemic activity in Sprague-Dawley rat assessed as reduction in blood glucose AUC at 3 mg/kg, ip measured after 3 hrs by IPGTT relative to control; type: functional
[19] = target: Peroxisome proliferator-activated receptor gamma (Homo sapiens) (UniProt P37231); assay: Inhibition of human PPARG at 10 uM relative to control
[20] = target: Histamine H1 receptor (Homo sapiens) (UniProt P35367); assay: Inhibition of human histamine H1 receptor at 10 uM relative to control
[21] = Total drug level in rat plasma at 3 mg/kg, po; type: ADME, organism-based; settings: in vivo
[22] = Dose normalized AUC in Wistar Han rat at 2 mg/kg, po; type: ADME, organism-based; settings: in vivo
[23] = Half-life in Wistar Han rat at 1 mg/kg, iv or 2 mg/kg, po; type: ADME, organism-based; settings: in vivo
[24] = Unbound drug level in Wistar Han rat plasma at 1 mg/kg, iv or 2 mg/kg, po measured at 3 hrs; type: ADME, organism-based; settings: in vivo
[25] = target: Beta-3 adrenergic receptor (Homo sapiens) (UniProt P13945); assay: Inhibition of human beta3 adrenergic receptor at 10 uM relative to control
[26] = Toxicity in rat at 100 mg/kg administered for 4 days; type: organism-based; settings: in vivo, 96 h
Rattus norvegicus [27] = assay: Hypoglycemic activity in Sprague-Dawley rat assessed as reduction in blood glucose AUC at 30 mg/kg, po pretreated for 1 hr followed by glucose challenge by OGTT relative to control; type: functional; set-up: scale not given: the % may be the effect or the level left
Mus musculus = organism: Mus musculus; assay: Glucose lowering effect in mouse assessed as increase in GLP-1 level; type: functional, organism-based
[28] = target: Prostaglandin E2 receptor EP3 subtype (Homo sapiens) (UniProt P43115); assay: Inhibition of human prostanoid EP3 receptor at 10 uM relative to control
Rattus norvegicus [29] = assay: Hypoglycemic activity in Sprague-Dawley rat assessed as reduction in blood glucose AUC at 3 mg/kg, po pretreated for 1 hr followed by glucose challenge by OGTT relative to control; type: functional; set-up: scale not given: the % may be the effect or the level left
[30] = Drug metabolism in rat hepatocytes assessed as (2S,3R)-3-cyclopropyl-3-(3-((R)-5-(2-fluoro-5-(sulfooxy)phenyl)-2,3-dihydro-1H-inden-1-yloxy)phenyl)-2-methylpropanoic acid formation at 5 uM measured after 2 hrs; type: ADME, cell-based, Hepatocyte
[31] = target: Acetylcholinesterase (Homo sapiens) (UniProt P22303); assay: Inhibition of human recombinant full length acetylcholine esterase expressed in HEK293 cells at 10 uM using acetylcholine as substrate preincubated for 15 mins followed by substrate addition measured after 20 mins by spectrophotometric analysis
[32] = Total drug level in rat plasma at 30 mg/kg, po; type: ADME, organism-based; settings: in vivo
[33] = Drug metabolism in human hepatocytes assessed as (2S,3S,4S,5R)-6-((2S,3R)-3-cyclopropyl-3-(3-((R)-5-(2-fluoro-5-methoxyphenyl)-2,3-dihydro-1H-inden-1-yloxy)phenyl)-2-methylpropanoyloxy)-3,4,5-trihydroxytetrahydro-2H-pyran-2-carboxylic acid formation at 5 uM measured after 2 hrs; type: ADME, cell-based, Hepatocyte
[34] = Toxicity in rat assessed as change in clinical pathology at 600 mg/kg administered for 4 days; type: organism-based; settings: in vivo, 96 h
[35] = target: Prostacyclin receptor (Homo sapiens) (UniProt P43119); assay: Inhibition of human prostanoid IP receptor at 10 uM relative to control
[36] = Total drug level in rat plasma at 0.3 mg/kg, po; type: ADME, organism-based; settings: in vivo
[37] = Protein binding in rat plasma assessed as unbound fraction at 0.3 mg/kg, po; type: ADME, organism-based; settings: in vivo
[38] = Protein binding in human plasma assessed as unbound fraction level; type: ADME, cell-free
[39] = Drug level in rat plasma at 650 mg/kg; type: ADME, organism-based; settings: in vivo
[40] = Protein binding in rat plasma assessed as unbound fraction at 1 mg/kg, po; type: ADME, organism-based; settings: in vivo
[41] = Drug level in rat plasma at 100 mg/kg; type: ADME, organism-based; settings: in vivo
[42] = Volume of distribution in Wistar Han rat at 1 mg/kg, iv or 2 mg/kg, po; type: ADME, organism-based; settings: in vivo
[43] = Oral bioavailability in Wistar Han rat at 2 mg/kg; type: ADME, organism-based; settings: in vivo
[44] = Solubility of the compound in FASSIF; type: physicochemical
[45] = target: T1, Free fatty acid receptor 1; assay: Positive allosteric modulation of recombinant human GPR40 expressed in HEK293 cells assessed as increase in [3H]-myo-inositol phosphate accumulation measured after 60 mins in absence of human serum by microbeta counting method relative to control; type: functional, cell-based; set-up: concentration or dose not given beside the values
Rattus norvegicus [46] = assay: Hypoglycemic activity in Sprague-Dawley rat assessed as reduction in blood glucose AUC at 1 mg/kg, po pretreated for 1 hr followed by glucose challenge by OGTT relative to control; type: functional; set-up: scale not given: the % may be the effect or the level left
[47] = Total drug level in Wistar Han rat plasma at 1 mg/kg, iv or 2 mg/kg, po measured at 3 hrs; type: ADME, organism-based
[48] = Total drug level in rat plasma at 10 mg/kg, po; type: ADME, organism-based; settings: in vivo
[49] = Protein binding in rat plasma assessed as unbound fraction at 30 mg/kg, po; type: ADME, organism-based; settings: in vivo
Rattus norvegicus [50] = assay: Hypoglycemic activity in Sprague-Dawley rat assessed as reduction in blood glucose AUC at 0.3 mg/kg, po pretreated for 1 hr followed by glucose challenge by OGTT relative to control; type: functional; set-up: scale not given: the % may be the effect or the level left
[51] = target: T1, Free fatty acid receptor 1; assay: Positive allosteric modulation of recombinant human GPR40 expressed in HEK293 cells assessed as increase in [3H]-myo-inositol phosphate accumulation measured after 60 mins in presence of 100% human serum by microbeta counting method relative to control; type: functional, cell-based
[52] = Protein binding in rat plasma assessed as unbound fraction at 3 mg/kg, po; type: ADME, organism-based; settings: in vivo
[53] = Drug level in Wistar Han rat assessed as unbound fraction at 1 mg/kg, iv or 2 mg/kg, po; type: ADME, organism-based; settings: in vivo

T1 sequence (O14842 whole entry): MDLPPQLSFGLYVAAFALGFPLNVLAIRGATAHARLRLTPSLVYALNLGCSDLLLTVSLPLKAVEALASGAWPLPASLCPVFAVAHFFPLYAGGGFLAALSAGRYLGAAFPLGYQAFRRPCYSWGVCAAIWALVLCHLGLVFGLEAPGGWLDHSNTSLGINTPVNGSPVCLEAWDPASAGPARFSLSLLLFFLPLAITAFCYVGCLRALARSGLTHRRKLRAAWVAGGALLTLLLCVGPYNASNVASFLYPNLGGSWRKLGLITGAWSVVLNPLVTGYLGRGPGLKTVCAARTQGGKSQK
Cysteinyl leukotriene receptor 2 (Homo sapiens), sequence (Q9NS75 whole entry): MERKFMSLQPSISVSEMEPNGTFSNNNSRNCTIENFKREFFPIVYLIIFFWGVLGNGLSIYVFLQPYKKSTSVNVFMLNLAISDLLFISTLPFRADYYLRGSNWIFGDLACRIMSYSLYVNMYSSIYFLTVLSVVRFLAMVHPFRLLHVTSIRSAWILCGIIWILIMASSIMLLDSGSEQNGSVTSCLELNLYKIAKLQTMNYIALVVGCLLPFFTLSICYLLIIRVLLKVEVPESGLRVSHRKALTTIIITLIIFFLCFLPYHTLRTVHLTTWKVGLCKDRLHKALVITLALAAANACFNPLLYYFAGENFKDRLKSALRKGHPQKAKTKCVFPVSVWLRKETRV
Histamine H1 receptor (Homo sapiens), sequence (P35367 whole entry): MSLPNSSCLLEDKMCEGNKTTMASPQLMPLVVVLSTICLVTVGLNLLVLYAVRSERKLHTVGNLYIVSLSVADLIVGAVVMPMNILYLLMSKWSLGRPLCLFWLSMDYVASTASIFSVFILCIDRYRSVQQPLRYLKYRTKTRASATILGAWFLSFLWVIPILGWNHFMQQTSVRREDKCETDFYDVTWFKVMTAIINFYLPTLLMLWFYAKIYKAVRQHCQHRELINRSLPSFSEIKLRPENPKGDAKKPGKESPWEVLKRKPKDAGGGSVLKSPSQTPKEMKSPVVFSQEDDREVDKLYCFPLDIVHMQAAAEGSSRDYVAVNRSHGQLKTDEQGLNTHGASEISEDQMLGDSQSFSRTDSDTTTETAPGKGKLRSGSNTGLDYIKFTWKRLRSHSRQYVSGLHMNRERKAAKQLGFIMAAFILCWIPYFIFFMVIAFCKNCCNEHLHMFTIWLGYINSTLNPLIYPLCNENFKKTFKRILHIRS
Prostaglandin E2 receptor EP3 subtype (Homo sapiens), sequence (P43115 whole entry): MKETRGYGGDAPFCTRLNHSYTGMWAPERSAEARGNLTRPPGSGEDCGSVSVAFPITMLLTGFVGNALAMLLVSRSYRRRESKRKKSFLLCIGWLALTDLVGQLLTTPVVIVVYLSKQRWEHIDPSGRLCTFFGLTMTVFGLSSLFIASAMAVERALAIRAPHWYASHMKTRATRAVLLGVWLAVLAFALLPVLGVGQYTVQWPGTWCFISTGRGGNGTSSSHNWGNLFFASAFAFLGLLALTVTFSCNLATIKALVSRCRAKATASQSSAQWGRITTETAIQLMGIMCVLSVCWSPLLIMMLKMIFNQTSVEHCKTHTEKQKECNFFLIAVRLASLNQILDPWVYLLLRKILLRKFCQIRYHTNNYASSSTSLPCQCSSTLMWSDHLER
Sodium-dependent noradrenaline transporter (Homo sapiens), sequence (P23975 whole entry): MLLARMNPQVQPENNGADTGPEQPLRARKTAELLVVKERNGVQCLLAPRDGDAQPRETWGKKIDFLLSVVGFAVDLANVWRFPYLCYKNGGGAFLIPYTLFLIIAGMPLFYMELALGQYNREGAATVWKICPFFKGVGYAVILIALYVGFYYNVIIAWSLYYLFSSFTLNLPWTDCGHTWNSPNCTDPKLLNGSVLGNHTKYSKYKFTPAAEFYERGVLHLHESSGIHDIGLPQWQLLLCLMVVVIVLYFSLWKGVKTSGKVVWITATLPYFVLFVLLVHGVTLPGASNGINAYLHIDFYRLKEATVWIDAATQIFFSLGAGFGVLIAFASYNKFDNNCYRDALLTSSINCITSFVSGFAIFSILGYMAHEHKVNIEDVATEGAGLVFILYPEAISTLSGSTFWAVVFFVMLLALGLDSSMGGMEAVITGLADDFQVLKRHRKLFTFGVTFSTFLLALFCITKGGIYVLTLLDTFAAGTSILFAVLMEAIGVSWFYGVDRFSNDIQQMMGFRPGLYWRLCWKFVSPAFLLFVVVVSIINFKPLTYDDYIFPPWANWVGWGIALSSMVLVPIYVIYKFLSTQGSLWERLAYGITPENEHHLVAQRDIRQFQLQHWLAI
Sodium-dependent dopamine transporter (Homo sapiens), sequence (Q01959 whole entry): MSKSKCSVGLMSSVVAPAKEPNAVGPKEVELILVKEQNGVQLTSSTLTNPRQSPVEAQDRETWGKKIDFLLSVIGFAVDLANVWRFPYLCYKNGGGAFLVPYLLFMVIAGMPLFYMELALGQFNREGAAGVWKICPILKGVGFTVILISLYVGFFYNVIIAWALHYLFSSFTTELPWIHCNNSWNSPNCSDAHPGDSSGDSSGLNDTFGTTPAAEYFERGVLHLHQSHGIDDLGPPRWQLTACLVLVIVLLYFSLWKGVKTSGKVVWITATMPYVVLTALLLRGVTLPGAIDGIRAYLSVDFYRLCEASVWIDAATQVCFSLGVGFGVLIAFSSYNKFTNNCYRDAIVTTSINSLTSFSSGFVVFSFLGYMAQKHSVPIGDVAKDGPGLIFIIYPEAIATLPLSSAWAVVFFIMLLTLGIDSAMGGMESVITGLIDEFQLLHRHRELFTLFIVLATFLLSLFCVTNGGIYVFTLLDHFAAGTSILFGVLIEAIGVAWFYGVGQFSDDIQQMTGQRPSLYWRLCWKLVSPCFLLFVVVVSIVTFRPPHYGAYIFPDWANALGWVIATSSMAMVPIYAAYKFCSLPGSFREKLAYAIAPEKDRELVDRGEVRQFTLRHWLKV
Prostacyclin receptor (Homo sapiens), sequence (P43119 whole entry): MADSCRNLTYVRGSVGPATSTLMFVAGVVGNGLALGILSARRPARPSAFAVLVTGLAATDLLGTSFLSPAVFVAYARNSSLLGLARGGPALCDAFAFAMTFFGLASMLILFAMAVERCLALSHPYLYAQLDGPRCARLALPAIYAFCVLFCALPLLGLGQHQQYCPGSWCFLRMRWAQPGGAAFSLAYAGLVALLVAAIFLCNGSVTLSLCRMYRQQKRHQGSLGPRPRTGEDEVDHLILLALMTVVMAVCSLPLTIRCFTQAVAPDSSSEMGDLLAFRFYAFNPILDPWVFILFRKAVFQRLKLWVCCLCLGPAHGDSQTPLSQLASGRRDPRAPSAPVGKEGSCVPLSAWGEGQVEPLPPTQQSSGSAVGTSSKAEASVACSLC
Prostaglandin E2 receptor EP1 subtype (Homo sapiens), sequence (P34995 whole entry): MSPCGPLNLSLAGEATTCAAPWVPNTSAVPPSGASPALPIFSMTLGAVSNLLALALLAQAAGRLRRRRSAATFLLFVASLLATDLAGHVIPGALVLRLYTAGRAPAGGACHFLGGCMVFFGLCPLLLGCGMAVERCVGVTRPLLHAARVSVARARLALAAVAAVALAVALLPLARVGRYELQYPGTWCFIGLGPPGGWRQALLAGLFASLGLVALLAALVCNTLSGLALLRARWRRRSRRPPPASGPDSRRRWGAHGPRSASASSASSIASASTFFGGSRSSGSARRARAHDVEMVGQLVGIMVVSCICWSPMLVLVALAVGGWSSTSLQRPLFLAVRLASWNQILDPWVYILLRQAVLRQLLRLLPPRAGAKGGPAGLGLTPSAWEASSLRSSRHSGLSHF
Acetylcholinesterase (Homo sapiens), sequence (P22303 whole entry): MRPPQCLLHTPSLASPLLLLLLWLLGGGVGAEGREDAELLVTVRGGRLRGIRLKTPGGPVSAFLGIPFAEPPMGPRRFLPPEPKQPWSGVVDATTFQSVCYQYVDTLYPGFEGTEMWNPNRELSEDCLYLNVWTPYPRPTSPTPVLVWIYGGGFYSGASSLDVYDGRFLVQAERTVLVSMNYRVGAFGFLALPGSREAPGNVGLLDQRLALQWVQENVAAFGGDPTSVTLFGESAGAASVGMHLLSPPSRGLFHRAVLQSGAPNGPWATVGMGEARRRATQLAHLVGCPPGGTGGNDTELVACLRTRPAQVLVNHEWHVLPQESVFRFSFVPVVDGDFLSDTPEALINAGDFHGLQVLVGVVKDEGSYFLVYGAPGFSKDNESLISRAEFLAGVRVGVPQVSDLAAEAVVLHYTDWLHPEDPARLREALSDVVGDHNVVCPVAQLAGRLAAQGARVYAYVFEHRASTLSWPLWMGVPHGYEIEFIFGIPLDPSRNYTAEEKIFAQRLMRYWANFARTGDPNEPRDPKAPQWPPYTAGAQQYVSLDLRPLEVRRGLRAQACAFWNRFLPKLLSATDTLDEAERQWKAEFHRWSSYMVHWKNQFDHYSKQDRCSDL
Peroxisome proliferator-activated receptor gamma (Homo sapiens), sequence (P37231 whole entry): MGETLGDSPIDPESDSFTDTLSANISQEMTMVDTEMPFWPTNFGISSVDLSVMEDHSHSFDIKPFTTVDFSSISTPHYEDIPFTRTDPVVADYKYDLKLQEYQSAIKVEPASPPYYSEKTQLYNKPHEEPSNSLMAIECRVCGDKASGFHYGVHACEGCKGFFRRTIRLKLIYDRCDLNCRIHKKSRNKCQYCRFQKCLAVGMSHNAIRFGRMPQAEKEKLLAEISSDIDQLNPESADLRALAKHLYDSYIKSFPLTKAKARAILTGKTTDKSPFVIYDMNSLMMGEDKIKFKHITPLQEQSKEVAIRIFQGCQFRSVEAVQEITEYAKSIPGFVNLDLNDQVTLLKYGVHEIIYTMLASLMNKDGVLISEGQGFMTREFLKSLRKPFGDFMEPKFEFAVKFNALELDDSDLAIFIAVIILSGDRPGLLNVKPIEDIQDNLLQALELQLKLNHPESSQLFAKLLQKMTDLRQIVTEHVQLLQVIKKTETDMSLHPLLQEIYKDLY

For `C[C@H](C(=O)OC1O[C@H](C(=O)O)[C@@H](O)[C@H](O)[C@H]1O)[C@H](c1cccc(O[C@@H]2CCc3cc(-c4cc(O)ccc4F)ccc32)c1)C1CC1` (stereo not given in full), the Stability [1] was “Stable” and the Drug metabolism [2] was “Metabolite_Detected”.

In the case of `C[C@H](C(=O)O)[C@H](c1cccc(O[C@@H]2CCc3cc(-c4cc(OS(=O)(=O)O)ccc4F)ccc32)c1)C1CC1`, the Drug metabolism [3] is reported as “Metabolite_Detected”.

For `COc1ccc(F)c(-c2ccc3c(c2)CC[C@H]3Oc2cccc([C@H](C3CC3)[C@H](C)C(=O)O)c2)c1`, the Activity [4] was “Toxic”, the concentration [5] was 689 nM and the inhibition [6] was 71%. For the same molecule, the inhibition [7] was 69%, the inhibition [8] was 81% and the clearance [9] was 2.8 mL/min/kg. The Activity (Rattus norvegicus [10]) was 105%, the Ratio [11] was 42 and the EC50 [12] was 0.0045 µM. For the same molecule, the Ratio [13] was 19, the “Cp(f)” value [14] was 0.76 nM and the inhibition [15] was 89%. The EC50 [16] was 0.388 µM, the fEC50 [16] was 0.04 nM and the Cmax [17] was 2900 nM. For the same molecule, the inhibition in vivo at 3 mg/kg (Rattus norvegicus [18]) was 71%, the inhibition [19] was 87% and the inhibition [20] was 70%. For the same molecule, the concentration [21] was 4470 nM, the AUC/dose [22] was 21.5 µM·h and the half-life [23] was 1.8 h. For the same molecule, the “Cp(f)” value [24] was 0.16 nM, the inhibition [25] was 55% and the Activity [26] was “Non-Toxic”. The Activity (Rattus norvegicus [27]) was 114%, the Activity (Mus musculus) was “Active” and the inhibition [28] was 80%. For the same molecule, the Activity (Rattus norvegicus [29]) was 82%, the Drug metabolism [30] was “Metabolite_Detected” and the inhibition [31] was 52%. For the same molecule, the concentration [32] was 17300 nM, the Drug metabolism [33] was “Metabolite_Detected” and the Activity [34] was “Toxic”. For the same molecule, the inhibition [35] was 68%, the concentration [36] was 207 nM and the “Cp(f)” value [37] was 0.02 nM. The Fu [38] was 0.01%, the concentration [39] was 1900 nM and the “Cp(f)” value [40] was 0.069 nM. The concentration [41] was 1240 nM, the Vd [42] was 0.33 L/kg and the bioavailability [43] was 81%. The solubility [44] was 153 µM (≈ 70.5 µg/mL), the Activity [45] was 323% and the Activity (Rattus norvegicus [46]) was 40%. For the same molecule, the concentration at 3 h [47] was 1600 nM, the concentration [48] was 7610 nM and the “Cp(f)” value [49] was 1.73 nM. For the same molecule, the Activity (Rattus norvegicus [50]) was 19%, the Activity [51] was 205% and the “Cp(f)” value [52] was 0.45 nM. For the same molecule, the Fu [53] was 0.01%.

Source: ChEMBL document CHEMBL4387733, “Design, synthesis and biological evaluation of indane derived GPR40 agoPAMs” (Bioorg Med Chem Lett, 2019)
